Assay results as given in a compilation of properties of binary mixtures (doi:10.1016/j.jct.2017.08.033).

Experiment: xn = mol fraction of the nth substance listed
Conditions: 101 kPa

O=S(=O)([N-]S(=O)(=O)C(F)(F)F)C(F)(F)F.[Li+] + CC[n+]1ccn(C)c1.O=S(=O)([N-]S(=O)(=O)C(F)(F)F)C(F)(F)F
viscosity [mPa·s]
Conditions	298.15 K	313.15 K	328.15 K	343.15 K	358.15 K
x2 = 0.6	588	225	108.2	60.8	38.3
x2 = 0.7	183	86.6	47.6	29.6	20.1
x2 = 0.8	–	47.5	28.5	18.8	–
x2 = 0.9	46.6	27.4	17.8	12.42	9.08
x2 = 0.95	37.4	22.7	15.1	10.69	7.96

CC[n+]1ccn(C)c1.O=S(=O)([N-]S(=O)(=O)C(F)(F)F)C(F)(F)F + O=S(=O)([N-]S(=O)(=O)C(F)(F)F)C(F)(F)F.[Li+]
x1 = 1
Conditions	viscosity [mPa·s]
298.15 K	30.7
328.15 K	13.1
358.15 K	7.12
